≈ marks a conversion by molar mass, not a printed value. Calls of active or inactive are those of the source. The rule behind the calls is not given here.
Key:
[1] = system: Streptococcus pyogenes; assay: Antibacterial activity against Streptococcus pyogenes ATCC 12344 assessed as bacterial growth inhibition incubated for 24 hrs by microdilution assay; assay type: functional
[2] = system: Staphylococcus aureus; assay: Antibacterial activity against Staphylococcus aureus USA300 LAC assessed as bacterial growth inhibition incubated for 24 hrs by microdilution assay; assay type: functional, organism-based
[3] = system: HCT-116; assay: Cytotoxicity against human HCT-116 cells harboring p53-/- assessed as inhibition of cell proliferation incubated for 72 hrs by MTT assay; assay type: functional, cell-based
[4] = system: HL-60; assay: Cytotoxicity against human HL-60 cells harboring wild type FLT3 assessed as inhibition of cell proliferation incubated for 72 hrs by MTT assay; assay type: functional, cell-based; details: for IC50: HL-60, 72 h
[5] = system: U-87 MG; assay: Cytotoxicity against human U87 cells harboring wild type IDH1 assessed as inhibition of cell proliferation incubated for 72 hrs by MTT assay; assay type: functional, cell-based; details: U-87MG ATCC
[6] = system: HCT-116; assay: Cytotoxicity against human HCT-116 cells harboring wild type p53 assessed as inhibition of cell proliferation incubated for 72 hrs by MTT assay; assay type: functional, cell-based; details: for IC50: HCT-116, 72 h
[7] = system: MV4-11; assay: Cytotoxicity against human MV4-11 cells harboring FLT3-ITD mutant assessed as inhibition of cell proliferation incubated for 72 hrs by MTT assay; assay type: functional, cell-based; details: for IC50: MV4-11, 72 h
[8] = system: U-87 MG; assay: Cytotoxicity against human U87 cells harboring IDH1-R132H mutant assessed as inhibition of cell proliferation incubated for 72 hrs by MTT assay; assay type: functional, cell-based; details: U-87MG ATCC

SMILES | MIC [1] | Activity [2] | Activity [3] | Activity [5] | Activity [8] | also measured
CC(=O)/C=C/C(=O)/C(C)=C/C=C/C(C)=C1\C(=O)C[C@H]2[C@@]3(C)CCC(=O)C(C)(C)[C@@H]3CC[C@]12C [GEODITIN A] | 0.9 µg/mL (≈ 2 µM) | Active | – | – | – | –
CC(=O)/C=C\C(=O)/C(C)=C/C=C/C(C)=C1\C(=O)C[C@H]2[C@@]3(C)CCC(=O)C(C)(C)[C@@H]3CC[C@]12C [ISOGEODITIN A] | 0.4 µg/mL (≈ 0.888 µM) | Active | – | – | – | –
CC1=CC[C@@H](/C(C)=C/C=C/C(C)=C2\C(=O)C[C@H]3[C@@]4(C)CCC(=O)C(C)(C)[C@@H]4CC[C@]23C)OC1=O | – | – | Active | Active | Active | Activity [4]: Active; Activity [6]: Active; Activity [7]: Active
CC(=O)O[C@H]1CC[C@@]2(C)[C@@H](CC[C@]3(C)/C(=C(C)/C=C/C=C(\C)[C@H]4CC=C(C)C(=O)O4)C(=O)C[C@@H]23)C1(C)C | – | – | Active | – | – | IC50 [4]: 42 nM; IC50 [6]: 2490 nM; IC50 [7]: 280 nM

Further compounds by falling MIC [1], results first:

MIC [1] | SMILES | Activity [2] | Activity [3] | Activity [5] | Activity [8] | also measured
2 µg/mL (≈ 3.95 µM) | CC(=O)O[C@H]1CC[C@@]2(C)[C@@H](CC[C@]3(C)/C(=C(C)/C=C/C=C(\C)c4ccc(C)c(=O)o4)C(=O)C[C@@H]23)C1(C)C [STELLETTIN D] | – | Active | Active | Active | IC50 [4]: 15 nM; IC50 [6]: 2350 nM; IC50 [7]: 390 nM
2 µg/mL (≈ 3.95 µM) | CC(=O)O[C@H]1CC[C@@]2(C)[C@@H](CC[C@]3(C)\C(=C(C)/C=C/C=C(\C)c4ccc(C)c(=O)o4)C(=O)C[C@@H]23)C1(C)C [STELLETTIN C] | – | Active | Active | Active | Activity [4]: Active; Activity [6]: Active; Activity [7]: Active
1.9 µg/mL (≈ 3.84 µM) | CC(=O)/C=C\C(=O)/C(C)=C/C=C/C(C)=C1\C(=O)C[C@H]2[C@@]3(C)CC[C@H](OC(C)=O)C(C)(C)[C@@H]3CC[C@]12C [ISOGEODITIN B] | – | – | – | – | –
1.8 µg/mL (≈ 3.99 µM) | CC(=O)/C=C/C(=O)/C(C)=C/C=C/C(C)=C1/C(=O)C[C@H]2[C@@]3(C)CCC(=O)C(C)(C)[C@@H]3CC[C@]12C | Active | – | – | – | –
1.8 µg/mL (≈ 3.89 µM) | C\C(=C/C=C/C(C)=C1/C(=O)C[C@H]2[C@@]3(C)CCC(=O)C(C)(C)[C@@H]3CC[C@]12C)c1ccc(C)c(=O)o1 [STELLETIN A] | – | Active | Active | Active | Activity [4]: Active; Activity [6]: Active; Activity [7]: Active
1 µg/mL (≈ 2.02 µM) | CC(=O)/C=C\C(=O)/C(C)=C/C=C/C(C)=C1/C(=O)C[C@H]2[C@@]3(C)CC[C@H](OC(C)=O)C(C)(C)[C@@H]3CC[C@]12C | Active | – | – | – | –
0.1 µg/mL (≈ 0.222 µM) | CC(=O)/C=C\C(=O)/C(C)=C/C=C/C(C)=C1/C(=O)C[C@H]2[C@@]3(C)CCC(=O)C(C)(C)[C@@H]3CC[C@]12C | Active | – | – | – | –

— ChEMBL document CHEMBL5143727, “Cytotoxic and Antibacterial Isomalabaricane Terpenoids from the Sponge Rhabdastrella globostellata” (J Nat Prod, 2022)
